# According to article PMC4634243 (Influenza and Other Respiratory Viruses, 2012):
# Key:
# [1] = test system: H5N1 influenza virus strain 178; assay: organism not typed; assay type: cell-based, H5N1 influenza virus strain 178 in MDCK cells
# purified N1‐type NA = purified N1‐type NA (Influenza A virus, UniProt P03468); assay type: biochemical
# [2] = test system: influenza virus type A, A/Chicken/GuangDong/178/2004 (H5N1, 178)
# [3] = test system: H5N1 influenza virus strain 178; assay type: cell-based, H5N1 influenza virus strain 178 in MDCK cells; conditions: 12–72 h
# [4] = test system: nuclear‐to‐cytoplasmic export of the RNP complex (NP); assay type: cell-based, 178 H5N1 HPAIV in MDCK cells
# [5] = test system: H5N1‐HIV pseudoviruses (HA of A/Qinghai/59/2005(H5N1), NA of A/Thailand/Kan353/2004); assay type: cell-based, H5N1 pseudovirus in MDCK cells
# [6] = test system: RNP combinations of PB2, PB1, PA, and NP from influenza virus strain 178; assay type: cell-based, influenza virus strain 178 (H5N1), 293T cells
# Chain of purified N1‐type NA (P03468 whole entry): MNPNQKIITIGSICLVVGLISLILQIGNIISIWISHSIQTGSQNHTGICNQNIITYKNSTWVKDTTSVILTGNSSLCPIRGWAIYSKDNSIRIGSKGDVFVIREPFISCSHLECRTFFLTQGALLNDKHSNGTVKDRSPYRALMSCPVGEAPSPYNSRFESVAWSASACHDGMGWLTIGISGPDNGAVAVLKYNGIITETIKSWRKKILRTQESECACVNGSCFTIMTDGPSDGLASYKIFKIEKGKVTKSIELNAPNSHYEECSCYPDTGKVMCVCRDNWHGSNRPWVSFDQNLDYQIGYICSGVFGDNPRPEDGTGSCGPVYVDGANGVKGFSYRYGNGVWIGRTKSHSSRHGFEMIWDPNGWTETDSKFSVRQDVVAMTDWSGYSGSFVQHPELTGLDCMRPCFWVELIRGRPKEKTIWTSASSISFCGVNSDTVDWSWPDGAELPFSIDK
SMILES,"inhibitory activity when added at time intervals 5 min–1 h, 15 min–1 h, 30 min–1 h, 1–2 h, 2–4 h, or 4–8 h [1]","inhibitory effect against virus, time of addition [1]",inhibition at 52 µM ([1]; read-out: virus inhibited (HA titer)),inhibitory activity on the N1‐type neuraminidase (purified N1‐type NA),SI (CC50/EC50) [2],"HA titer, cultured with DMEM‐containing compounds (protocol 4, 5, 7) [3]",location of NP protein at 48 h p.i. (multi‐round replication) [4],"migration of the RNP complex from the nucleus to cytoplasm, early and middle stages of the replication cycle (0–6 h) [4]",time for which antiviral activity (block in vRNP nuclear export) was retained [4],prevention of binding and internalizing of H5N1 pseudovirions into MDCK cells [5],CC50 (MDCK cells),luciferase activities (RNP activity) compared with no treatment [6],"distribution of NP protein at 12, 24, and 48 h p.i. [4]"
"O[C@H]1[C@H]2c3cc4c(cc3CN3CCC(=C[C@@H]1O)[C@H]23)OCO4 [AA1, lycorine]",not significant,observed after a single round of replication (12 h p.i.),~50%,did not exhibit significant inhibitory activity,>45,no HA titer was detected,NP protein was exported to cytoplasm,affected migration of the RNP complex from the nucleus to cytoplasm,up to 24 h,neither AA1 nor AA3 could prevent,20·9 ± 0·07 μM,slightly higher luciferase activities,
"O=c1cc(N2CCOCC2)oc2c(-c3ccccc3)cccc12 [LY294002, reference compound]",,,,,,,,,,,,,the protein was still in the nucleus
